# Active and inactive are the calls of the source. The calls are words filed in the database; no cut-off is given here.
# What was measured:
# HUVEC [1] = experiment: Cytotoxicity against HUVEC assessed as reduction in cell viability after 24 hrs by MTT assay; format: cell-based; settings: human
# HUVEC [2] = experiment: Antiangiogenic activity in HUVEC assessed as inhibition of vascular endothelial tube formation at 3.125 uM after 24 hrs by matrigel assay relative to control; format: functional; settings: Homo sapiens
# HUVEC [3] = experiment: Antiangiogenic activity in HUVEC assessed as inhibition of vascular endothelial tube formation at 6.25 uM after 24 hrs by matrigel assay relative to control; format: functional; settings: Homo sapiens
# [4] = Cytotoxicity against HUVEC assessed as cell viability at 3.12 uM after 24 hrs by MTT assay; format: cell-based; settings: human, HUVEC cells; read-out: Activity
# HUVEC [5] = experiment: Cytotoxicity against HUVEC assessed as reduction in cell viability at 100 uM after 24 hrs by MTT assay; format: cell-based; settings: human
# HUVEC [6] = experiment: Cytotoxicity against HUVEC assessed as reduction in cell viability up to 6.25 uM after 24 hrs by MTT assay; format: cell-based; settings: human
# HUVEC [7] = experiment: Cytotoxicity against HUVEC assessed as reduction in cell viability at 12.50 to 100 uM after 24 hrs by MTT assay; format: cell-based; settings: human
# [8] = Cytotoxicity against HUVEC assessed as cell viability at 100 uM after 24 hrs by MTT assay; format: cell-based; settings: human, HUVEC cells; read-out: Activity
# MDA-MB-231 [9] = experiment: Antimetastatic activity against human MDA-MB-231 cells assessed as cell viability at 3.125 uM after 24 hrs by MTT assay relative to control; format: functional; settings: MDA-MB-231, 24 h, read-out: Activity
# MDA-MB-231 [10] = experiment: Antimetastatic activity against human MDA-MB-231 cells assessed as reduction in cell viability at 6.25 uM after 24 hrs by MTT assay relative to control; format: functional
# MDA-MB-231 [11] = experiment: Antimetastatic activity against human MDA-MB-231 cells assessed as reduction in cell viability at 50 uM after 24 hrs by MTT assay relative to control; format: functional
# MDA-MB-231 [12] = experiment: Antimetastatic activity against human MDA-MB-231 cells assessed as reduction in cell viability at 100 uM after 24 hrs by MTT assay relative to control; format: functional
# MDA-MB-231 [13] = experiment: Antimetastatic activity against human MDA-MB-231 cells assessed as reduction in cell viability at 200 uM after 24 hrs by MTT assay relative to control; format: functional
# MCF7 [14] = experiment: Antimetastatic activity against human MCF7 cells assessed as cell viability at 3.125 uM after 24 hrs by MTT assay relative to control; format: functional; settings: MCF7, 24 h, read-out: Activity
# MCF7 [15] = experiment: Antimetastatic activity against human MCF7 cells assessed as cell viability at 100 uM after 24 hrs by MTT assay relative to control; format: functional; settings: MCF7, 24 h, read-out: Activity
# MDA-MB-231 [16] = experiment: Antimetastatic activity against human MDA-MB-231 cells assessed as reduction in cell viability at <6.25 uM after 24 hrs by MTT assay; format: functional, cell-based
# MDA-MB-231 [17] = experiment: Decrease in MMP9 mRNA expression in human MDA-MB-231 cells at 3.125 to 6.25 uM after 24 hrs by RT-PCR method; format: functional, cell-based
# MDA-MB-231 [18] = experiment: Downregulation of VEGF protein expression in human MDA-MB-231 cells at 3.125 uM after 24 hrs by Western blot analysis relative to control; format: functional
# MDA-MB-231 [19] = experiment: Downregulation of VEGF protein expression in human MDA-MB-231 cells at 6.25 uM after 24 hrs by Western blot analysis relative to control; format: functional
# [20] = molecular target: RAC-alpha serine/threonine-protein kinase (Homo sapiens) (UniProt P31749); experiment: Inhibition of Akt phosphorylation in human MDA-MB-231 cells at 3.125 uM after 24 hrs by Western blot analysis relative to control; format: cell-based
# Chain of RAC-alpha serine/threonine-protein kinase (Homo sapiens) (P31749 whole entry): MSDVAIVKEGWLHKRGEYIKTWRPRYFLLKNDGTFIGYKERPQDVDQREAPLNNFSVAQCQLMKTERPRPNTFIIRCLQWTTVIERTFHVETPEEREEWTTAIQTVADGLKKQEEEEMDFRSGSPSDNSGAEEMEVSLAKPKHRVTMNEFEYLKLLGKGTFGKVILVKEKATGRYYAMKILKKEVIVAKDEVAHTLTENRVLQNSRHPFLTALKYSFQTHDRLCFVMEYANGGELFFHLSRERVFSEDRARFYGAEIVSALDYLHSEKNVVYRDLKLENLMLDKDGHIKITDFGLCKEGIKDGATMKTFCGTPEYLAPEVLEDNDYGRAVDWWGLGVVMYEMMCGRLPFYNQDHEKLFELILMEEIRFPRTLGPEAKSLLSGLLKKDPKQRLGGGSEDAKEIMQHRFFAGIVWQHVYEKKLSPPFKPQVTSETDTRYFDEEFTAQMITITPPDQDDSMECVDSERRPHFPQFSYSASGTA
# [21] = molecular target: RAC-alpha serine/threonine-protein kinase (Homo sapiens) (UniProt P31749); experiment: Inhibition of Akt phosphorylation in human MDA-MB-231 cells at 6.25 uM after 24 hrs by Western blot analysis relative to control; format: cell-based
# Homo sapiens [22] = species on record: Homo sapiens; experiment: Inhibition of ERK phosphorylation in human MDA-MB-231 cells at 3.125 uM after 24 hrs by Western blot analysis relative to control; format: cell-based
# Homo sapiens [23] = species on record: Homo sapiens; experiment: Inhibition of ERK phosphorylation in human MDA-MB-231 cells at 6.25 uM after 24 hrs by Western blot analysis relative to control; format: cell-based
# Homo sapiens [24] = species on record: Homo sapiens; experiment: Inhibition of ERK phosphorylation in human MDA-MB-231 cells at […] after 24 hrs by Western blot analysis relative to control; format: cell-based
smiles,measurement,setting,value
COc1cc2oc(-c3ccc(O)cc3)cc(=O)c2c(O)c1OC [CIRSIMARITIN],Activity,HUVEC [1],Dose-dependent effect
same,inhibition at 3.125 µM,HUVEC [2],18.1%
same,inhibition at 6.25 µM,HUVEC [3],32.2%
same,"viability at 24 h, 3.12 µM",[4],89.9%
same,Activity,HUVEC [5],62.04%
same,Activity,HUVEC [6],Non-Toxic
same,Activity,HUVEC [7],Toxic
same,"viability at 24 h, 100 µM",[8],38%
same,viability at 3.125 µM,MDA-MB-231 [9],88.2%
same,Activity,MDA-MB-231 [10],83.19%
same,Activity,MDA-MB-231 [11],78.74%
same,Activity,MDA-MB-231 [12],38.56%
same,Activity,MDA-MB-231 [13],52.73%
same,viability at 3.125 µM,MCF7 [14],81.8%
same,viability at 100 µM,MCF7 [15],53.4%
same,Activity,MDA-MB-231 [16],inactive
same,Activity,MDA-MB-231 [17],Active
same,fold change (FC),MDA-MB-231 [18],0.78
same,fold change (FC),MDA-MB-231 [19],0.78
same,fold change (FC),[20],0.68
same,fold change (FC),[21],0.66
same,fold change (FC),Homo sapiens [22],0.8
same,fold change (FC),Homo sapiens [23],0.57
same,inhibition,Homo sapiens [24],43%
COc1cccc2c1C(=O)c1c(O)c3c(c(O)c1C2=O)C[C@@](O)(C(=O)CO)C[C@@H]3O[C@H]1C[C@H](N)[C@H](O)[C@H](C)O1 [DOXORUBICIN],"viability at 24 h, 3.12 µM",[4],14.2%
same,"viability at 24 h, 100 µM",[8],11.7%
